Experiments:
human GPR139 receptor [1] = target: T1, human GPR139 receptor (Homo sapiens, UniProt Q6DWJ6); experiment: Measurement of GPR139 Activation Via Calcium Signaling (FLIPR, T-REx-CHO cells); type: cell-based; conditions: T-REx-CHO cells stably expressing human GPR139, 11-point dose response, 10 μM maximum concentration, read-out: GPR139 Potency (pEC50) (converted)
T1 construct: expressed in transfected cells; host or cells: T-REx-CHO (Thermo Fisher Scientific), doxycycline-induced
T1 sequence (Q6DWJ6 1-353): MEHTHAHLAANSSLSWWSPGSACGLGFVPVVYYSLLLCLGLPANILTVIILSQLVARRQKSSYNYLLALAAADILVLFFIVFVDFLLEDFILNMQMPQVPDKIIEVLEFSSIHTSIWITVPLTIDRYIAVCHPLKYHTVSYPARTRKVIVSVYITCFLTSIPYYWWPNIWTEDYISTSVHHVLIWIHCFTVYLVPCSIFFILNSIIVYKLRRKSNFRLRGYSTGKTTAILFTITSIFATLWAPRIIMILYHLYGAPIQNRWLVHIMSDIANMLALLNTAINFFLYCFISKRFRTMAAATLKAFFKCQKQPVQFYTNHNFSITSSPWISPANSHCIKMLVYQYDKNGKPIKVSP
Procedure, shortened: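 Calcium flux read by FLIPR for 1 min after adding compounds (11 concentrations, maximum 10 μM) to doxycycline-induced (2 μg/mL, 17 h) T-REx-CHO cells expressing human GPR139. Cells dye-loaded 40 min at 37 °C in HBSS, 1 mM HEPES pH 7.4 with probenecid; activation reported as pEC50 from four-parameter logistic fit.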

human GPR139 receptor [2] = target: T1, human GPR139 receptor; experiment: GPR139 Competition Binding (membrane-based, tritium-labeled ligand); conditions: T-REx-CHO membranes with human GPR139; 6.5 nM tritium-labeled ligand; 11-point curve, 30 μM maximum concentration; read-out: GPR139 Binding Affinity (pKi) (converted)
Procedure, shortened: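 Membranes came from doxycycline-induced T-REx-CHO cells expressing human GPR139. They were incubated 20 min at room temperature with 6.5 nM tritiated ligand and compound (11 points, top 30 μM) in HEPES pH 7.3 buffer with MgCl2/CaCl2. Filter-bound counts gave Ki by four-parameter fit, reported as pKi.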

SMILES | EC50 (human GPR139 receptor [1]) | Ki (human GPR139 receptor [2])
C[C@H](NC(=O)Cn1ncc2ccn(C)c2c1=O)c1ccccc1 [Example 153, (S)-2-(1-methyl-7-oxo-1,7-dihydro-6H-pyrrolo[2,3-d]pyridazin-6-yl)-N-(1-phenylethyl)acetamide] | 89.1 nM | 1740 nM
Cc1nn(C(C)C)c2c(=O)n(CC(=O)N[C@@H](C)c3ccc(C(F)(F)F)cn3)ncc12 [Example 103, (S)-2-(1-isopropyl-3-methyl-7-oxo-1,7-dihydro-6H-pyrazolo[3,4-d]pyridazin-6-yl)-N-(1-(5-(trifluoromethyl)pyridin-2-yl)ethyl)acetamide] | 219 nM | 10000 nM
Cc1nn(C2CC2)c2cnn(CC(=O)N[C@@H](C)c3cc(F)cc(F)c3)c(=O)c12 [Example 135, (S)-2-(1-cyclopropyl-3-methyl-4-oxo-1,4-dihydro-5H-pyrazolo[3,4-d]pyridazin-5-yl)-N-(1-(3,5-difluorophenyl)ethyl)acetamide] | 14.1 nM | 132 nM
C[C@H](NC(=O)Cn1ncc2c(C3CC3)nn(C)c2c1=O)c1ccc(OC(F)(F)F)cc1 [Example 143, (S)-2-(3-cyclopropyl-1-methyl-7-oxo-1,7-dihydro-6H-pyrazolo[3,4-d]pyridazin-6-yl)-N-(1-(4-(trifluoromethoxy)phenyl)ethyl)acetamide] | 117 nM | 178 nM
Cc1ccc([C@H](C)NC(=O)Cn2nc(C)c3c(C)nn(C4CC4)c3c2=O)cc1F [Example 68, (S)-2-(1-cyclopropyl-3,4-dimethyl-7-oxo-1,7-dihydro-6H-pyrazolo[3,4-d]pyridazin-6-yl)-N-(1-(3-fluoro-4-methylphenyl)ethyl)acetamide] | 69.2 nM | 0.347 nM
Cc1nn(CC(=O)N[C@@H](C)c2ccc(C(F)(F)F)cc2)c(=O)c2c1cnn2C(C)(C)C [Example 14, (S)-2-(1-(tert-butyl)-4-methyl-7-oxo-1,7-dihydro-6H-pyrazolo[3,4-d]pyridazin-6-yl)-N-(1-(4-(trifluoromethyl)phenyl)ethyl)acetamide] | 617 nM | 37.2 nM
Cc1ccc([C@H](C)NC(=O)Cn2ncc3ncn(C)c3c2=O)cc1 [Example 138, (S)-2-(3-methyl-4-oxo-3,4-dihydro-5H-imidazo[4,5-d]pyridazin-5-yl)-N-(1-(p-tolyl)ethyl)acetamide] | 363 nM | 30200 nM
COc1ccc([C@H](C)NC(=O)Cn2ncc3c(c(C(C)C)nn3C)c2=O)cc1 [Example 53, (S)-2-(3-isopropyl-1-methyl-4-oxo-1,4-dihydro-5H-pyrazolo[3,4-d]pyridazin-5-yl)-N-(1-(4-methoxyphenyl)ethyl)acetamide] | 55 nM | 1020 nM
Cc1nn(C2CC2)c2cnn(CC(=O)N[C@@H](C)c3cccc(F)c3F)c(=O)c12 [Example 30, (S)-2-(1-cyclopropyl-3-methyl-4-oxo-1,4-dihydro-5H-pyrazolo[3,4-d]pyridazin-5-yl)-N-(1-(2,3-difluorophenyl)ethyl)acetamide] | 72.4 nM | 257 nM
Cc1nn(CC(=O)N[C@@H](C)c2ccc(C(F)(F)F)cc2)c(=O)c2c(C3CC3)nn(C)c12 [Example 120, (S)-2-(3-cyclopropyl-1,7-dimethyl-4-oxo-1,4-dihydro-5H-pyrazolo[3,4-d]pyridazin-5-yl)-N-(1-(4-(trifluoromethyl)phenyl)ethyl)acetamide] | 182 nM | 17.4 nM
C[C@H](NC(=O)Cn1nc(C2CC2)c2cnn(-c3ccccc3)c2c1=O)c1ccc(C(F)(F)F)cc1 [Example 44, (S)-2-(4-cyclopropyl-7-oxo-1-phenyl-1,7-dihydro-6H-pyrazolo[3,4-d]pyridazin-6-yl)-N-(1-(4-(trifluoromethyl)phenyl)ethyl)acetamide] | 3630 nM | 105 nM
C[C@H](NC(=O)Cn1ncc2c(c(C(F)(F)F)nn2C)c1=O)c1ccc(C(F)(F)F)cc1 [Example 172, (S)-2-(1-methyl-4-oxo-3-(trifluoromethyl)-1,4-dihydro-5H-pyrazolo[3,4-d]pyridazin-5-yl)-N-(1-(4-(trifluoromethyl)phenyl)ethyl)acetamide] | 93.3 nM | 178 nM
Cc1nn(CC(=O)N[C@@H](C)c2ccc(OC(F)(F)F)cc2)c(=O)c2c1cnn2C(C)(C)C [Example 15, (S)-2-(1-(tert-butyl)-4-methyl-7-oxo-1,7-dihydro-6H-pyrazolo[3,4-d]pyridazin-6-yl)-N-(1-(4-(trifluoromethoxy)phenyl)ethyl)acetamide] | 617 nM | 57.5 nM
Cc1cn(C2CC2)c2cnn(CC(=O)N[C@@H](C)c3ccc(C(F)(F)F)cc3)c(=O)c12 [Example 144, (S)-2-(1-cyclopropyl-3-methyl-4-oxo-1,4-dihydro-5H-pyrrolo[2,3-d]pyridazin-5-yl)-N-(1-(4-(trifluoromethyl)phenyl)ethyl)acetamide] | 83.2 nM | 20 nM
Cc1ccc([C@H](C)NC(=O)Cn2ncc3c(cnn3C(C)C)c2=O)c(F)c1 [Example 88, (S)—N-(1-(2-fluoro-4-methylphenyl)ethyl)-2-(1-isopropyl-4-oxo-1,4-dihydro-5H-pyrazolo[3,4-d]pyridazin-5-yl)acetamide] | 77.6 nM | 676 nM
COc1ccc([C@H](C)NC(=O)Cn2nc(C)c3cnn(-c4ccccc4)c3c2=O)cc1 [Example 2, (S)—N-(1-(4-methoxyphenyl)ethyl)-2-(4-methyl-7-oxo-1-phenyl-1,7-dihydro-6H-pyrazolo[3,4-d]pyridazin-6-yl)acetamide] | 56.2 nM | 871 nM
[2H]C([2H])([2H])c1ccc([C@H](C)NC(=O)Cn2ncc3c(c(C)nn3C3CC3)c2=O)cc1 [Example 167, (S)-2-(1-cyclopropyl-3-methyl-4-oxo-1,4-dihydro-5H-pyrazolo[3,4-d]pyridazin-5-yl)-N-(1-(4-(methyl-d3)phenyl)ethyl)acetamide] | 63.1 nM | 316 nM

The next lines start with the values.

EC50 (human GPR139 receptor [1]) | Ki (human GPR139 receptor [2]) | SMILES
132 nM | 204 nM | Cc1nn(C)c2c(C)nn(CC(=O)N[C@@H](C)c3ccc(C(F)(F)F)cc3)c(=O)c12 [Example 114, (S)—N-(1-(4-(trifluoromethyl)phenyl)ethyl)-2-(1,3,7-trimethyl-4-oxo-1,4-dihydro-5H-pyrazolo[3,4-d]pyridazin-5-yl)acetamide]
240 nM | 219 nM | Cc1ccc([C@H](C)NC(=O)Cn2ncc3c(C)nn(C)c3c2=O)cc1 [Example 27, (S)-2-(1,3-dimethyl-7-oxo-1,7-dihydro-6H-pyrazolo[3,4-d]pyridazin-6-yl)-N-(1-(p-tolyl)ethyl)acetamide]
347 nM | 741 nM | Cc1nn(CC(=O)N[C@@H](C)c2ccc(C(F)(F)F)cn2)c(=O)c2c1c(C)nn2C(C)C [Example 59, (S)-2-(1-isopropyl-3,4-dimethyl-7-oxo-1,7-dihydro-6H-pyrazolo[3,4-d]pyridazin-6-yl)-N-(1-(5-(trifluoromethyl)pyridin-2-yl)ethyl)acetamide]
2140 nM | 1450 nM | COc1ccc([C@H](C)NC(=O)Cn2nc(C)c3c(c(C)nn3C)c2=O)cc1 [Example 123, (S)—N-(1-(4-methoxyphenyl)ethyl)-2-(1,3,7-trimethyl-4-oxo-1,4-dihydro-5H-pyrazolo[3,4-d]pyridazin-5-yl)acetamide]
21.4 nM | 490 nM | Cc1nn(CC(=O)N[C@@H](C)c2cccc(F)c2)c(=O)c2c1c(C)nn2C [Example 154, (S)—N-(1-(3-fluorophenyl)ethyl)-2-(1,3,4-trimethyl-7-oxo-1,7-dihydro-6H-pyrazolo[3,4-d]pyridazin-6-yl)acetamide]
83.2 nM | 380 nM | Cc1ccc([C@H](C)NC(=O)Cn2nc(C)c3c(c(C)nn3C(C)C)c2=O)cc1 [Example 55, (S)-2-(1-isopropyl-3,7-dimethyl-4-oxo-1,4-dihydro-5H-pyrazolo[3,4-d]pyridazin-5-yl)-N-(1-(p-tolyl)ethyl)acetamide]
115 nM | 28.2 nM | Cc1ccc([C@H](C)NC(=O)Cn2nc(C)c3c(C)nn(C(C)C)c3c2=O)cc1 [Example 21, (S)-2-(1-isopropyl-3,4-dimethyl-7-oxo-1,7-dihydro-6H-pyrazolo[3,4-d]pyridazin-6-yl)-N-(1-(p-tolyl)ethyl)acetamide]
44.7 nM | 2190 nM | Cc1ccc([C@H](C)NC(=O)Cn2ncc3c(cnn3C(C)C)c2=O)cc1 [Example 89, (S)-2-(1-isopropyl-4-oxo-1,4-dihydro-5H-pyrazolo[3,4-d]pyridazin-5-yl)-N-(1-(p-tolyl)ethyl)acetamide]
132 nM | 3090 nM | COc1ccc([C@H](C)NC(=O)Cn2nc(C)c3c(c(C)nn3C(C)C)c2=O)cc1 [Example 57, (S)-2-(1-isopropyl-3,7-dimethyl-4-oxo-1,4-dihydro-5H-pyrazolo[3,4-d]pyridazin-5-yl)-N-(1-(4-methoxyphenyl)ethyl)acetamide]
